Source: patent US5614504A, “Method of making inosine monophosphate derivatives and immunopotentiating uses thereof” (The University of South Florida, priority 1995, dated 1997)
Like-named read-outs stand apart in the source and are kept apart here.

Assays:
[1] = system: delayed-type hypersensitivity response; experiment: Delayed-type hypersensitivity in vivo (footpad swelling, SRBC); set-up: species or system mice
Method: Mice were immunized by intraperitoneal administration of SRBC in graded doses of from 10^6 to 10^9 cells. […] A dose of 10^7 was chosen to immunize animals in this study.
Four days following immunization, each mouse was challenged by injecting the left hind footpad subcutaneously with 10^8 SRBC in 50 μl phosphate buffered saline (PBS). Vehicle (50 μl PBS) was injected subcutaneously into the right hind footpad as a control. The compounds being tested were injected intraperitoneally either at the time of immunization or at the time of elicitation. After 24 hours of challenge, footpad swelling was measured as the increase in footpad thickness (left minus right) using Engineer's calipers.
The results are expressed as increments of footpad thickness in 0.1 mmunits. The characteristics of delayed-type hypersensitivity measured in this way have been described previously in MacDonald et al. (1979). FIGS. 13 and 14 show the results of this testing.

anti-HBs = experiment: Anti-HBs production in normal DBA/2 mice (EIA); format: in vivo; conditions: for anti-HBs, Day 14 / anti-HBs, Day 21: 50 mg/kg
From the text: Different strains of mice, coded by Pre-S2 zone S-gene HBV for their immune responses for proteins place them in the following haplotype order (Benaceraf and McDevitt, 1972): H-2^b >H-2^d >H-2^s >H-2^k>H-2^f. […] Therefore, male DBA/2 mice weighing 16-18 grams were obtained from the Animal Laboratory, Academy of Medical Science, Russia, and were used in the examples set forth herein. This line of mice was chosen as they are poor responders to hepatitis B vaccine.
Serum specimens from immunized mice were tested for the presence of anti-HBs in an enzyme immunoassay (EIA) using the diagnostic kits of Roche Diagnostica as per the manufacturer's instructions. The anti-HBs EIA kit (Roche), has a sensitivity of <10 IU/1.
Antibody concentration was determined with the help of calibration curves designed on the basis of the results of anti-HBs detection in standard serum panel (Roche Diagnostica) with the concentrations, as follows: 10 IU/l; 50 IU/l; 100 IU/l and 150 IU/l. The results of the two experiments were used for the calculation of mean values.
HBsAg was administered at a dose of […] in 0.2 ml PBS (pH 7.4) twice with an interval of two weeks between injections.
A protected-IMP, MIMP, was introduced both orally or intraperitoneally at a dose of 50 mg/kg.
The results of anti-HBs detection in the control group of mice treated with HBsAg alone and in the groups treated with the combination of HBsAg and MIMP, as prepared in the examples, are presented in Table 9. The various vaccination schedules are provided in the following list.

CD8+ lymphocytes = experiment: PHA response of CD8+ enriched human lymphocytes; format: cell-based; conditions: MIMP 1-200 μg/ml, 3 donors, p <0.01
From the text: Human CD4+ and CD8+ lymphocyte subsets were obtained from normal controls using commercial panning techniques (Applied Immune Sciences, Santa Clara, Calif.).
Human peripheral blood lymphocytes are on average approximately 80% T lymphocytes and 20% B lymphocytes and of the T lymphocytes, 2/3 are of the CD4+ helper/inducer phenotype and 1/3 are the CD8+ suppressor/cytotoxic phenotype. Enrichment of CD4+ T cells or CD8+ T cells can be achieved through reduction of the other phenotype (>98%) removal using adherence to monoclonal antibody-coated flasks (panning).

murine splenocytes = experiment: Murine splenocyte proliferation with PHA or LPS; format: cell-based, BALB/c mice; conditions: for tritiated thymidine incorporation, LPS 10 μg/ml / tritiated thymidine incorporation, PHA 0.5 μg/ml: mean CPM±SEM
Method: In vitro: Both human peripheral blood lymphocytes (HPBL) and mouse spleen lymphocytes (MSL) were employed. Proliferation was assayed by tritiated thymidine incorporation, as described in Hadden et al. (1975) and Hadden et al. (1986). For HPBL transformation, PHA and PWM were used at 0.5 μg/ml. For MSL transformation, Con A was used at 0.5 μg/ml, phytohemagglutinin (PHA, Murex Diagnostics, Atlanta, Ga.) at 0.5 μg/ml and lipopolysaccharide endotoxin (LPS, Sigma, St. Louis, Mo.) at 10 μg/ml. When protected-IMP derivatives were added, they were added at the onset of culture at varying concentrations ranging from 0.1 μg/ml to 100 μg/ml.
Murine splenocytes were obtained from BALB/c mice, 4-12 months old, by standard procedures (Hadden et al., 1975). They were cultured in microwell plates at 1.5×10^6 cells/ml of minimal essential media (MEM, Gibco Labs, Grand Island, N.Y.) with 5% fetal calf serum (FCS, Hyclone Labs, Logan, Utah) and tested for their proliferative response to mitogens as measured by incorporation of (^3 H) tritiated thymidine (New England Nuclear, Wilmington Del., […]; 2.5 μCi/ml) during a terminal pulse followed by liquid scintillation spectrometry. Human cells were seeded at […] and cultured for 48 hours with an 18 hour pulse with ^3 H-thymidine.
In a further experiment, murine splenocytes were incubated with PHA or LPS and MIMP (1-100 μg/ml). […] Splenocyte responses to PHA preferentially reflect T lymphocyte responses, confirming the responses seen with ConA. The LPS responses also parallel the previous experiment.
The data was obtained from four different animals and represent quadruplicate samples for each concentration. They are expressed as mean CPM±SEM, with * showing a significance of p<0.05 and ** showing p<0.01.

influenza virus = format: in vivo, NMRI mice; conditions: for % mortality: Table 7, 200 μg, i.n.
[2] = system: human peripheral blood lymphocytes (HPBL); experiment: PHA responses of HPBL from aged and HIV-infected individuals; format: cell-based; conditions: 100 μg/ml
Method: The human donors included 22 healthy controls (ages ranging from 20-50), 24 aged individuals (mean age 84 years, ±1), 8 HIV-infected pre-AIDS patients (CDC Class II-mean CD4 count 544), and 8 AIDS patients (mean CD4 count 40).
FIG. 7 depicts the PHA responses of these aged and HIV-infected individuals and the effect of stimulation with 100 μg/ml of MIMP compared to normal controls (C).

[3] = scheme 3: HBsAg + MIMP i.p. simultaneously then MIMP per os, p < 0.01

With `COP(=O)(O)OC[C@H]1O[C@@H](n2cnc3c(=O)[nH]cnc32)[C@H](O)[C@@H]1O` [Me-IMP, Methyl-5'-inosine-monophosphate] the delayed-type hypersensitivity response ([1]; one dose i.p. at the time of challenge) was “not significant”, the delayed-type hypersensitivity response ([1]; one dose i.p. at the time of immunization) was “significantly stimulated” and the “anti-HBs, Day 14” value (anti-HBs; scheme 2: HBsAg + MIMP per os 30 minutes prior to vaccine) was under 10 IU/1. The “anti-HBs, Day 21” value (anti-HBs; scheme 2: HBsAg + MIMP per os 30 minutes prior to vaccine, 0.01 < p < 0.05) was 370 IU/1, the “anti-HBs, Day 14” value (anti-HBs; [3]) was 100 IU/1 and the “anti-HBs, Day 21” value (anti-HBs; [3]) was 610 IU/1. For the same molecule, the “anti-HBs, Day 21” value (anti-HBs; scheme 4: HBsAg + MIMP i.p. simultaneously, 0.01 < p < 0.05) was 420 IU/1, the “anti-HBs, Day 14” value (anti-HBs; scheme 4: HBsAg + MIMP i.p. simultaneously, p < 0.01) was 100 IU/1 and the “level of antibodies to HBsAg” value (anti-HBs; single intraperitoneal or single oral dose of 50 mg/kg) was “significant increase”. For the same molecule, the “PHA response of CD8+ lymphocytes” value (CD8+ lymphocytes) was “significantly augmented”, the “tritiated thymidine incorporation, LPS 10 μg/ml” value (murine splenocytes; MIMP 1 μg/ml) was 47261 ± 997 CPM and the “tritiated thymidine incorporation, PHA 0.5 μg/ml” value (murine splenocytes; MIMP 1 μg/ml) was 106647 ± 4917 CPM. For the same molecule, the “tritiated thymidine incorporation, LPS 10 μg/ml” value (murine splenocytes; MIMP 10 μg/ml, p<0.05) was 57481 ± 2343 CPM, the “tritiated thymidine incorporation, PHA 0.5 μg/ml” value (murine splenocytes; MIMP 10 μg/ml, p<0.05) was 117247 ± 6500 CPM and the “tritiated thymidine incorporation, PHA 0.5 μg/ml” value (murine splenocytes; MIMP 100 μg/ml, p<0.01) was 124801 ± 6630 CPM. The “tritiated thymidine incorporation, LPS 10 μg/ml” value (murine splenocytes; MIMP 100 μg/ml, p<0.05) was 55153 ± 6176 CPM, the “splenocyte responses in the absence of mitogens” value (murine splenocytes; MIMP 1-100 μg/ml) was “did not affect” and the “proliferative responses in the presence of mitogens” value (murine splenocytes; MIMP 1-100 μg/ml, PHA or LPS) was “progressively and significantly augumented”. The “% mortality” value (influenza virus; -1 h) was 80%, the “% mortality” value (influenza virus; -1 d) was 60% and the “number of survivors and mean survival time (MST)” value (influenza virus; mouse, in vivo) was “increased the number of survivors and mean survival time”. For the same molecule, the “survival and MST” value (influenza virus; mouse, in vivo) was “increased survival and MST”, the “response of lymphocytes to MIMP in presence of PHA” value (from here on “response of lymphocytes to MIMP”) ([2]; 8 AIDS patients) was “no response” and the “response of lymphocytes to MIMP” value ([2]; 8 HIV-infected (ARC) individuals) was “significant response”. For the same molecule, the “response of lymphocytes to MIMP” value ([2]; 9 aged patients (Ag-)) was “markedly depressed responses to PHA and also to MIMP”, the “response of lymphocytes to MIMP” value ([2]; 15 aged patients (Ag+)) was “normal PHA responses and responses to MIMP” and the “response of lymphocytes to MIMP” value ([2]; 22 controls) was “normal PHA and MIMP responses”.
